Results reported in ChEMBL document CHEMBL1909046, “DrugMatrix in vitro pharmacology data”.

Key:
[1] = biological target: 5-hydroxytryptamine receptor 2B (Homo sapiens, UniProt P41595); type: cell membranes, CHO-K1, Membrane; settings: cho-k1; further: in other assays of this panel Not Active means under 50% inhibition at 10 µM
Histamine H2 receptor = Histamine H2 receptor (Homo sapiens, UniProt P25021); type: cell membranes, CHO-K1, Membrane; settings: cho-k1; further: in other assays of this panel Not Active means under 50% inhibition at 10 µM
Leukotriene C4 synthase = biological target: T1, Leukotriene C4 synthase (Cavia porcellus, UniProt A6XA80); type: tissue-based, Lung;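 further: enzyme inhibition assay of leukotriene C4 synthase, using LTA4 as the substrate; in other assays of this panel Not Active means under 50% inhibition at 10 µM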
T1 sequence (A6XA80 whole entry): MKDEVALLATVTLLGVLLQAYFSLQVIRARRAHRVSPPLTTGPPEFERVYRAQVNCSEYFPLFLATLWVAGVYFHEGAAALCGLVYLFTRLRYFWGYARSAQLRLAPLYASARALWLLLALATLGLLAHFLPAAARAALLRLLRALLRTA

D(4) dopamine receptor = biological target: T2, D(4) dopamine receptor (Homo sapiens, UniProt P21917); experiment: DRUGMATRIX: Dopamine D4.2 radioligand binding (ligand: [3H] Spiperone); type: cell membranes, CHO-K1, Membrane; settings: cho-k1; Not Active = under 50% inhibition at 10 µM
T2 sequence (P21917 whole entry): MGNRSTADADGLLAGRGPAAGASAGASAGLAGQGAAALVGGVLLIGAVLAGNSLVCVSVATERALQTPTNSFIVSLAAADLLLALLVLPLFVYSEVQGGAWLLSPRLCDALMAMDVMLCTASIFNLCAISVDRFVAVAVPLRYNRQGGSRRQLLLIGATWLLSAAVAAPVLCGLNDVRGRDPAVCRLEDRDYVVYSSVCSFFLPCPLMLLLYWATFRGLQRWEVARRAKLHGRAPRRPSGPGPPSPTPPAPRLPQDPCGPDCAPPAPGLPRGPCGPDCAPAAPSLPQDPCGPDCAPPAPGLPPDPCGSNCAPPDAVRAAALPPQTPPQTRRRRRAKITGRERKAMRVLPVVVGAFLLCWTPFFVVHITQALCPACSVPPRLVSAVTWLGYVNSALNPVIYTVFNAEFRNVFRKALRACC

[2] = biological target: Beta-2 adrenergic receptor (Homo sapiens, UniProt P07550); experiment: DRUGMATRIX: Adrenergic beta2 radioligand binding (ligand: [3H] CGP-12177); type: cell membranes, Membrane; settings: cho; Not Active = under 50% inhibition at 10 µM
[3] = biological target: Protein phosphatase 3 catalytic subunit alpha (Homo sapiens, UniProt Q08209); design: species or system Escherichia coli;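 further: inhibition of calcineurin (PP2B) enzyme activity, measured with DiFMUP as the substrate; in other assays of this panel Not Active means under 50% inhibition at 10 µM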

Measured: IC50

Sequence of Beta-2 adrenergic receptor (P07550 whole entry): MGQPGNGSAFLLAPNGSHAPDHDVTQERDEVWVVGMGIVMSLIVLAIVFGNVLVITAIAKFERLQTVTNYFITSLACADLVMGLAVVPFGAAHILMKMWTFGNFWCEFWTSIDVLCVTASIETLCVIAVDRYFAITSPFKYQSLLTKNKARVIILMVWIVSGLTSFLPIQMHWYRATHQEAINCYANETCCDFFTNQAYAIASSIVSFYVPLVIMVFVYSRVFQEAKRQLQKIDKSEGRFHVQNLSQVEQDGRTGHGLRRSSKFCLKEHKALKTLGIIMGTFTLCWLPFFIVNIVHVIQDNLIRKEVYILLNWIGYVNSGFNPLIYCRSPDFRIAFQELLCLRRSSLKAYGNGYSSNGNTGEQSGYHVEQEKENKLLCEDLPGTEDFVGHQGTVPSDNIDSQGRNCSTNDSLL
Sequence of 5-hydroxytryptamine receptor 2B (P41595 whole entry): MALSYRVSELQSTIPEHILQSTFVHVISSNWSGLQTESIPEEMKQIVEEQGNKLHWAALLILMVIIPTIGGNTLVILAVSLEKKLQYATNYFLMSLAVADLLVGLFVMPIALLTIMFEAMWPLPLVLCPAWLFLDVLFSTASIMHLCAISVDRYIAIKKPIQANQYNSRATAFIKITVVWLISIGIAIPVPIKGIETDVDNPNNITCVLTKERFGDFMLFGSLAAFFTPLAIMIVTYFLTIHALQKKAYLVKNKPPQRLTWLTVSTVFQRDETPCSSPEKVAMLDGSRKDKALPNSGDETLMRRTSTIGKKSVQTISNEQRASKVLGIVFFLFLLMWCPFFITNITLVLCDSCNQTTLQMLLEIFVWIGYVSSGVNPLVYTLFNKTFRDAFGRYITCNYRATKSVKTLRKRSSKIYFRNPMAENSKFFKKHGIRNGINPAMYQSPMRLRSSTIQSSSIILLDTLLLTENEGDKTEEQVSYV
Sequence of Histamine H2 receptor (P25021 whole entry): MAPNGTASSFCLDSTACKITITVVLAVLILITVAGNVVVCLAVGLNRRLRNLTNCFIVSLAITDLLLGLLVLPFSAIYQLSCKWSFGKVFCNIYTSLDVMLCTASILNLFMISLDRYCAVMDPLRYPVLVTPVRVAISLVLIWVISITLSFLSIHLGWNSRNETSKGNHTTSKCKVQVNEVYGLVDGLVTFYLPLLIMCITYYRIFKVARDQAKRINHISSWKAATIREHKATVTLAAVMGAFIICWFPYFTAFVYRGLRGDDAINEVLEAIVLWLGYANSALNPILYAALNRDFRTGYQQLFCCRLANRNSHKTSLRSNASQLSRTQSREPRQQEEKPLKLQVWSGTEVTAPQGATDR

CO[C@H]1/C=C/O[C@@]2(C)Oc3c(C)c(O)c4c(O)c(c(/C=N/N5CCN(C)CC5)c(O)c4c3C2=O)NC(=O)/C(C)=C\C=C\[C@H](C)[C@H](O)[C@@H](C)[C@@H](O)[C@@H](C)[C@H](OC(C)=O)[C@@H]1C [RIFAMPIN]
Not Active: all assays above

Cc1oncc1C(=O)Nc1ccc(C(F)(F)F)cc1 [LEFLUNOMIDE]
Not Active: all assays above

N#CC(C#N)=Cc1ccc(O)c(O)c1 [TYRPHOSTIN 23]
Not Active: all assays above
